Reference: PubChem BioAssay AID2060900 (Molecular Pharmacology Branch, DTP, NCI, 2025)
pIC50: −log10 of the molar value. Each block holds one compound with its values, some of them ahead of it.

System: 521955-158-R2-J5-PDC complex spheroids, viability
Assay: Anticancer human tumor 521955-158-R2-J5-PDC patient-derived pancreatic carcinoma cell line growth inhibition [RAS]
Settings: for pIC50: curve of first compound; for viability, T/C: stronger effect = lower value
In short: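 Multi-cell-type spheroids: tumor cells plus HUVEC endothelial cells and mesenchymal stem cells. RAS-pathway inhibitors were combined with targeted agents, each dosed in half-log steps down from clinical Cmax, or from 10 microM when Cmax was unknown.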
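Further: compound exposure lasted seven days before the viability read.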
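Wherever viability, T/C is given: spheroids also contain HUVEC endothelial cells and mesenchymal stem cells as stroma.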

pIC50 (second compound 0.000949 µM): 8.11
pIC50 (second compound 0.003 µM): 8.06
pIC50 (second compound 0.00949 µM): 8.07
pIC50 (second compound 0.03 µM): 8.17
pIC50 (second compound 0.0949 µM): 8.14
pIC50 (second compound 0.3 µM): 8.24
Structure (SMILES): CC1(C)CCC(Nc2ncc(C(F)(F)F)c(-c3c[nH]c4c(P(C)(C)=O)c(C#N)ccc34)n2)CN1 (stereo unspecified) + CCn1c(-c2cccnc2C(C)OC)c2c3cc(ccc31)N1CCOC(CC(NC(=O)C(C(C)C)N(C)C(=O)C3(F)CCN(C(=O)C#CC(C)(C)N(C)C)CC3)C(=O)N3CCCC(N3)C(=O)OCC(C)(C)C2)C1
viability, T/C (second compound 0.000949 µM, first compound 0.000949 µM): 88.5%
viability, T/C (second compound 0.000949 µM, first compound 0.003 µM): 60.9%
viability, T/C (second compound 0.000949 µM, first compound 0.00949 µM): 50.1%
viability, T/C (second compound 0.000949 µM, first compound 0.03 µM): 39.2%
viability, T/C (second compound 0.000949 µM, first compound 0.0949 µM): 40.7%
viability, T/C (second compound 0.000949 µM, first compound 0.3 µM): 43%
viability, T/C (second compound 0.003 µM, first compound 0.000949 µM): 106%
viability, T/C (second compound 0.003 µM, first compound 0.003 µM): 65.2%
viability, T/C (second compound 0.003 µM, first compound 0.00949 µM): 49.9%
viability, T/C (second compound 0.003 µM, first compound 0.03 µM): 44%
viability, T/C (second compound 0.003 µM, first compound 0.0949 µM): 39.7%
viability, T/C (second compound 0.003 µM, first compound 0.3 µM): 45.7%
viability, T/C (second compound 0.00949 µM, first compound 0.000949 µM): 83.2%
viability, T/C (second compound 0.00949 µM, first compound 0.003 µM): 62.5%
viability, T/C (second compound 0.00949 µM, first compound 0.00949 µM): 52%
viability, T/C (second compound 0.00949 µM, first compound 0.03 µM): 36.2%
viability, T/C (second compound 0.00949 µM, first compound 0.0949 µM): 42.5%
viability, T/C (second compound 0.00949 µM, first compound 0.3 µM): 54.1%
viability, T/C (second compound 0.03 µM, first compound 0.000949 µM): 90.5%
viability, T/C (second compound 0.03 µM, first compound 0.003 µM): 68.7%
viability, T/C (second compound 0.03 µM, first compound 0.00949 µM): 40.9%
viability, T/C (second compound 0.03 µM, first compound 0.03 µM): 38.4%
viability, T/C (second compound 0.03 µM, first compound 0.0949 µM): 41.8%
viability, T/C (second compound 0.03 µM, first compound 0.3 µM): 48.4%
viability, T/C (second compound 0.0949 µM, first compound 0.000949 µM): 80.8%
viability, T/C (second compound 0.0949 µM, first compound 0.003 µM): 66.2%
viability, T/C (second compound 0.0949 µM, first compound 0.00949 µM): 45.4%
viability, T/C (second compound 0.0949 µM, first compound 0.03 µM): 38.9%
viability, T/C (second compound 0.0949 µM, first compound 0.0949 µM): 40%
viability, T/C (second compound 0.0949 µM, first compound 0.3 µM): 39%
viability, T/C (second compound 0.3 µM, first compound 0.000949 µM): 68.2%
viability, T/C (second compound 0.3 µM, first compound 0.003 µM): 65.1%
viability, T/C (second compound 0.3 µM, first compound 0.00949 µM): 38.7%
viability, T/C (second compound 0.3 µM, first compound 0.03 µM): 34.2%
viability, T/C (second compound 0.3 µM, first compound 0.0949 µM): 38.2%
viability, T/C (second compound 0.3 µM, first compound 0.3 µM): 40.1%

pIC50 (second compound 0.000949 µM): > 7.50
pIC50 (second compound 0.003 µM): > 7.50
pIC50 (second compound 0.00949 µM): > 7.50
pIC50 (second compound 0.03 µM): > 7.50
pIC50 (second compound 0.0949 µM): > 7.50
pIC50 (second compound 0.3 µM): > 7.50
Structure (SMILES): CC(=O)OC12COC1CC(O)C1(C)C(=O)C(O)C3=C(C)C(OC(=O)C(O)C(NC(=O)OC(C)(C)C)c4ccccc4)CC(O)(C(OC(=O)c4ccccc4)C21)C3(C)C (stereo unspecified) + CCn1c(-c2cc(N3CCN(C)CC3)cnc2C(C)OC)c2c3cc(ccc31)-c1csc(n1)CC(NC(=O)C1CC1C)C(=O)N1CCCC(N1)C(=O)OCC(C)(C)C2
viability, T/C (second compound 0.000949 µM, first compound 0.0316 µM): 19.7%
viability, T/C (second compound 0.000949 µM, first compound 0.1 µM): 23.3%
viability, T/C (second compound 0.000949 µM, first compound 0.316 µM): 20.3%
viability, T/C (second compound 0.000949 µM, first compound 1 µM): 24.3%
viability, T/C (second compound 0.000949 µM, first compound 3.16 µM): 29.3%
viability, T/C (second compound 0.000949 µM, first compound 10 µM): 30.7%
viability, T/C (second compound 0.003 µM, first compound 0.0316 µM): 25.7%
viability, T/C (second compound 0.003 µM, first compound 0.1 µM): 21.4%
viability, T/C (second compound 0.003 µM, first compound 0.316 µM): 23.5%
viability, T/C (second compound 0.003 µM, first compound 1 µM): 28.9%
viability, T/C (second compound 0.003 µM, first compound 3.16 µM): 23.7%
viability, T/C (second compound 0.003 µM, first compound 10 µM): 26.8%
viability, T/C (second compound 0.00949 µM, first compound 0.0316 µM): 20.8%
viability, T/C (second compound 0.00949 µM, first compound 0.1 µM): 21.7%
viability, T/C (second compound 0.00949 µM, first compound 0.316 µM): 20.4%
viability, T/C (second compound 0.00949 µM, first compound 1 µM): 19.8%
viability, T/C (second compound 0.00949 µM, first compound 3.16 µM): 18.9%
viability, T/C (second compound 0.00949 µM, first compound 10 µM): 16.6%
viability, T/C (second compound 0.03 µM, first compound 0.0316 µM): 12.9%
viability, T/C (second compound 0.03 µM, first compound 0.1 µM): 12.8%
viability, T/C (second compound 0.03 µM, first compound 0.316 µM): 11.8%
viability, T/C (second compound 0.03 µM, first compound 1 µM): 16.9%
viability, T/C (second compound 0.03 µM, first compound 3.16 µM): 12.7%
viability, T/C (second compound 0.03 µM, first compound 10 µM): 9.64%
viability, T/C (second compound 0.0949 µM, first compound 0.0316 µM): 7.98%
viability, T/C (second compound 0.0949 µM, first compound 0.1 µM): 9.42%
viability, T/C (second compound 0.0949 µM, first compound 0.316 µM): 11.9%
viability, T/C (second compound 0.0949 µM, first compound 1 µM): 8.27%
viability, T/C (second compound 0.0949 µM, first compound 3.16 µM): 12.1%
viability, T/C (second compound 0.0949 µM, first compound 10 µM): 7.89%
viability, T/C (second compound 0.3 µM, first compound 0.0316 µM): 7.22%
viability, T/C (second compound 0.3 µM, first compound 0.1 µM): 8.9%
viability, T/C (second compound 0.3 µM, first compound 0.316 µM): 7.91%
viability, T/C (second compound 0.3 µM, first compound 1 µM): 11.6%
viability, T/C (second compound 0.3 µM, first compound 3.16 µM): 10.6%
viability, T/C (second compound 0.3 µM, first compound 10 µM): 7.75%

pIC50 (second compound 0.00316 µM): < 5.00
pIC50 (second compound 0.01 µM): < 5.00
pIC50 (second compound 0.0316 µM): < 5.00
pIC50 (second compound 0.1 µM): 5.00
pIC50 (second compound 0.316 µM): < 5.00
pIC50 (second compound 1 µM): < 5.00
Structure (SMILES): NC1c2ccccc2OC12CCN(c1cnc3c(N4CCCc5ncccc54)n[nH]c3n1)CC2 (stereo unspecified) + C=CC(=O)N1CCN(c2nc(OCC3CCCN3C)nc3c(F)c(-c4nc(N)cc(C)c4C(F)(F)F)c(Cl)cc23)C(C)C1
viability, T/C (second compound 0.00316 µM, first compound 0.0316 µM): 69.6%
viability, T/C (second compound 0.00316 µM, first compound 0.1 µM): 69.4%
viability, T/C (second compound 0.00316 µM, first compound 0.316 µM): 64.4%
viability, T/C (second compound 0.00316 µM, first compound 1 µM): 61.5%
viability, T/C (second compound 0.00316 µM, first compound 3.16 µM): 54.8%
viability, T/C (second compound 0.00316 µM, first compound 10 µM): 59.3%
viability, T/C (second compound 0.01 µM, first compound 0.0316 µM): 68%
viability, T/C (second compound 0.01 µM, first compound 0.1 µM): 68%
viability, T/C (second compound 0.01 µM, first compound 0.316 µM): 62.1%
viability, T/C (second compound 0.01 µM, first compound 1 µM): 63.2%
viability, T/C (second compound 0.01 µM, first compound 3.16 µM): 53.7%
viability, T/C (second compound 0.01 µM, first compound 10 µM): 65.6%
viability, T/C (second compound 0.0316 µM, first compound 0.0316 µM): 65.8%
viability, T/C (second compound 0.0316 µM, first compound 0.1 µM): 79.6%
viability, T/C (second compound 0.0316 µM, first compound 0.316 µM): 69.1%
viability, T/C (second compound 0.0316 µM, first compound 1 µM): 61.5%
viability, T/C (second compound 0.0316 µM, first compound 3.16 µM): 65.3%
viability, T/C (second compound 0.0316 µM, first compound 10 µM): 51.8%
viability, T/C (second compound 0.1 µM, first compound 0.0316 µM): 73%
viability, T/C (second compound 0.1 µM, first compound 0.1 µM): 79.8%
viability, T/C (second compound 0.1 µM, first compound 0.316 µM): 55.1%
viability, T/C (second compound 0.1 µM, first compound 1 µM): 57.7%
viability, T/C (second compound 0.1 µM, first compound 3.16 µM): 51.8%
viability, T/C (second compound 0.1 µM, first compound 10 µM): 58.8%
viability, T/C (second compound 0.316 µM, first compound 0.0316 µM): 75.4%
viability, T/C (second compound 0.316 µM, first compound 0.1 µM): 59.2%
viability, T/C (second compound 0.316 µM, first compound 0.316 µM): 58.1%
viability, T/C (second compound 0.316 µM, first compound 1 µM): 59.5%
viability, T/C (second compound 0.316 µM, first compound 3.16 µM): 46.1%
viability, T/C (second compound 0.316 µM, first compound 10 µM): 60.5%
viability, T/C (second compound 1 µM, first compound 0.0316 µM): 70.3%
viability, T/C (second compound 1 µM, first compound 0.1 µM): 61.4%
viability, T/C (second compound 1 µM, first compound 0.316 µM): 54.7%
viability, T/C (second compound 1 µM, first compound 1 µM): 69.6%
viability, T/C (second compound 1 µM, first compound 3.16 µM): 60.4%
viability, T/C (second compound 1 µM, first compound 10 µM): 58.3%
